Experimental data as given in US20240216369A1, “THE USE OF A SPLICING MODULATOR FOR A TREATMENT SLOWING PROGRESSION OF HUNTINGTON'S DISEASE” (Novartis AG, priority 2019, published 2024).

Key:
mutant HTT protein = assay: Human PK/PD model scaled from BacHD mouse, simulations in adult patients; conditions: Scaled PD parameters (cortex)
From the text: For the development of a PK/PD model in adults, the adult ACAT/PBPK model (Example 1c.1) was used to predict the concentration-time course of branaplam in plasma after oral branaplam administration. The PD parameters of the population PK/PD model in mouse were scaled for brain cortex and brain striatum from BacHD mouse to human according to following assumptions: • Mutant HTT baseline level in brain (R0) was kept equal to 1. • Drug's potency (IC50) was assumed to be the same in human as in BacHD mouse. The value was not corrected by the plasma protein binding since values in mouse and human were 0.741 and 0.8 in mouse and human, respectively. • Degradation rate or fractional turnover parameter of the mutant HTT protein synthesis (kout) was scaled from BacHD mouse to human considering an allometric scaling method based on the assumption that endogenous turnover of proteins, peptides and hormones can be scaled across different species and are related to energy turnover or metabolic rates (Gabrielsson J, Hjorth S, Quantitative Pharmacology: An Introduction to Integrative Pharmacokinetic-Pharmacodynamic Analysis. Swedish Pharmaceutical Press; 1 edition (May 7, 2012)). […]

[1] = Pediatric ACAT/PBPK model (Type 1 SMA patients); parameters: species or system human; conditions: Type 1 SMA patients 33-39 months; optimized on observed data
From the text: The pharmacokinetic (PK) model in adult subjects was developed using an Advanced Compartmental And Transit (ACAT)/Physiologically Based Pharmacokinetic (PBPK) model in GastroPlus™ software, Version 9.6 (SimulationPlus, Lancaster, CA, USA).
• Principle set-up of a pediatric ACAT/PBPK model in GastroPlus™ software including physico-chemical parameters, physiological parameters, and formulation factors. The ACAT model was linked to a full PBPK model in which tissue-to-plasma concentration ratios were estimated via in silico method provided by GastroPlus™ software. • Estimation of the clearance (CL) using plasma concentrations of branaplam from an open-label multi-part first-in-human proof of concept study of oral branaplam, Part 1 only. The aim of Part 1 of this study was to determine the safety and tolerability of ascending weekly doses and to estimate the maximum tolerated dose (MTD) of oral/enteral branaplam (formulation described in Example 3) in infants with Type 1 SMA. All patients had exactly 2 copies of the SMN2 gene. Patients were dosed once weekly with branaplam. The branaplam doses were escalated in subsequent cohorts until MTD was determined or when PK results confirmed that the MTD could not be reached due to a potential pharmacokinetic exposure plateau at higher doses. The starting dose referring to the free base was 6 mg/m^2 (equal to 0.3125 mg/kg). Subsequent doses were 12 mg/m^2, 24 mg/m^2, 48 mg/m^2 and 60 mg/m^2 (0.625 mg/kg, 1.25 mg/kg, 2.5 mg/kg and 3.125 mg/kg, respectively). 14 patients were enrolled in Part 1; 13 patients were exposed to branaplam. The duration of exposure ranged from 4-33 months, 7 patients remain in the study. Six of the 7 patients are receiving 60 mg/m^2, 1 patient is receiving 48 mg/m^2.
Observed plasma concentrations of branaplam in 33-39 months old Type 1 SMA patients after nominal branaplam doses of 60 mg/m^2 (3.125 mg/kg, first-in-human proof of concept study with branaplam as described above) were used to build the pediatric ACAT/PBPK by means of GastroPlus™ software. […]

For `CC1(C)CC(Oc2ccc(-c3ccc(-c4cn[nH]c4)cc3O)nn2)CC(C)(C)N1` [Compound 18, 5-(1H-pyrazol-4-yl)-2-(6-((2,2,6,6-tetramethylpiperidin-4-yl)oxy)pyridazin-3-yl)phenol], the Imax (mutant HTT protein; first block) was 1, the Imax (mutant HTT protein; second block) was 1 and the Vc [1] was 3.62 (Optimized value using GastroPlus ™ based on the 1/h. For the same compound, the k12 [1] was 1.41 (Optimized value using GastroPlus ™ based on the 1/h and the k21 [1] was 0.144 (Optimized value using GastroPlus ™ based on the 1/h.
